# Laboratory results taken from article PMC12032945, “Estrogenic activity of E2-conjugated GLP-1 is mediated by intracellular endolysosomal acidification and estrone metabolism” (Molecular Metabolism, 2025).
# Key:
# [1] = molecular target: T1, hGLP-1R (Homo sapiens, UniProt P43220); assay: cAMP production, CAMYEL BRET; type: cell-based, human (hGLP-1R) in HEK293T cells
# [2] = system: GLP-1R+ HEK293T cells; assay: estrone-3-sulfate ELISA in cell lysate; type: cell-based; details: 1 μM, 2 h
# [3] = system: G-protein coupled estrogen receptor 1 (GPER1); assay: cAMP production in GPER1+ HEK293T cells; type: cell-based
# [4] = system: ERα and SP-1; assay: Proximity ligation assay (PLA) ERα / SP-1; type: cell-based, human (hERα) in HEK293T cells; details: 1 μM; HEK293T overexpressing hGLP-1R and ERα
# [5] = molecular target: T1, hGLP-1R; assay: GLP-1R-Rluc8 internalization away from GFP-CAAX, BRET; type: cell-based, human (hGLP-1R) in HEK293T cells
# [6] = molecular target: T2, ERα (Homo sapiens, UniProt P03372); assay: Estrogen response element (ERE) luciferase reporter; type: cell-based, human (hERα) in HEK293T cells; details: bafilomycinA1 (5 μM) or EN6 (50 μM) with E2 or E2-3-ether; 24 h
# T2 sequence (P03372 1-595): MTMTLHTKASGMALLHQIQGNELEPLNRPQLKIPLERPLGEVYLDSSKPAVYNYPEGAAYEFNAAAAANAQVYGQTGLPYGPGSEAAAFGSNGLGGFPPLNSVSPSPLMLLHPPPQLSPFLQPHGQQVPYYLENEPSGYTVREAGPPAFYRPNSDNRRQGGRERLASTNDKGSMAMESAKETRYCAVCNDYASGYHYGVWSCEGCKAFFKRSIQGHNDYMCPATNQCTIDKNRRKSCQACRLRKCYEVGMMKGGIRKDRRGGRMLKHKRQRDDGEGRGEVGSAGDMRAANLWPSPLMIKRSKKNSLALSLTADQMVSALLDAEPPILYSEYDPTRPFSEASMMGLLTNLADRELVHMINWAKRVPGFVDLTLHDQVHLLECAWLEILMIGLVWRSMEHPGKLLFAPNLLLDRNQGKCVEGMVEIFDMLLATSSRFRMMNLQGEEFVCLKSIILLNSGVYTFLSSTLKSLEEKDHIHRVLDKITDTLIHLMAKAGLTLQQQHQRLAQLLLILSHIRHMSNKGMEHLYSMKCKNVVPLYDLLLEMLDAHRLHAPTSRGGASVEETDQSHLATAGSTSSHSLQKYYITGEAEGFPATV
# [7] = system: GLP-1R / Rab5+ early endosomes; assay: GLP-1R colocalization with Rab5+ early endosomes, BRET; details: with GLP-1 (7-36)amide (1 μM)
# [8] = molecular target: T1, hGLP-1R; assay: Nluc-mGαs recruitment to GLP-1R-GFP, BRET; type: cell-based, human (hGLP-1R) in HEK293T cells
# [9] = molecular target: T1, hGLP-1R; assay: Nluc-mGαq recruitment to GLP-1R-GFP, BRET; type: cell-based, human (hGLP-1R) in HEK293T cells
# [10] = molecular target: T1, hGLP-1R; assay: β-arrestin-2-Rluc8 recruitment to GLP-1R-GFP, BRET; type: cell-based, human (hGLP-1R) in HEK293T cells
# [11] = molecular target: T1, hGLP-1R; assay: Nluc-mGαs recruitment to GLP-1R, BRET, MIN6; type: cell-based, human (hGLP-1R) in mouse MIN6 cells
# [12] = molecular target: T1, hGLP-1R; assay: cAMP production, BRET, MIN6; type: cell-based, human (hGLP-1R) in mouse MIN6 cells
# [13] = molecular target: T1, hGLP-1R; assay: Nluc-mGαq recruitment to GLP-1R, BRET, MIN6; type: cell-based, human (hGLP-1R) in mouse MIN6 cells
# [14] = molecular target: T1, hGLP-1R; assay: GLP-1R-Rluc8 internalization, BRET, MIN6; type: cell-based, human (hGLP-1R) in mouse MIN6 cells
# [15] = molecular target: T1, hGLP-1R; assay: β-arrestin-2-Rluc8 recruitment, BRET, MIN6; type: cell-based, human (hGLP-1R) in mouse MIN6 cells
# [16] = molecular target: T1, hGLP-1R; assay: Nluc-mGαs recruitment to GLP-1R, BRET, CLU177; type: cell-based, human (hGLP-1R) in mouse CLU177 cells
# [17] = molecular target: T1, hGLP-1R; assay: cAMP production, BRET, CLU177; type: cell-based, human (hGLP-1R) in mouse CLU177 cells
# [18] = molecular target: T1, hGLP-1R; assay: GLP-1R-Rluc8 internalization, BRET, CLU177; type: cell-based, human (hGLP-1R) in mouse CLU177 cells
# [19] = molecular target: T1, hGLP-1R; assay: β-arrestin-2-Rluc8 recruitment, BRET, CLU177; type: cell-based, human (hGLP-1R) in mouse CLU177 cells
# T1 sequence (P43220 24-463): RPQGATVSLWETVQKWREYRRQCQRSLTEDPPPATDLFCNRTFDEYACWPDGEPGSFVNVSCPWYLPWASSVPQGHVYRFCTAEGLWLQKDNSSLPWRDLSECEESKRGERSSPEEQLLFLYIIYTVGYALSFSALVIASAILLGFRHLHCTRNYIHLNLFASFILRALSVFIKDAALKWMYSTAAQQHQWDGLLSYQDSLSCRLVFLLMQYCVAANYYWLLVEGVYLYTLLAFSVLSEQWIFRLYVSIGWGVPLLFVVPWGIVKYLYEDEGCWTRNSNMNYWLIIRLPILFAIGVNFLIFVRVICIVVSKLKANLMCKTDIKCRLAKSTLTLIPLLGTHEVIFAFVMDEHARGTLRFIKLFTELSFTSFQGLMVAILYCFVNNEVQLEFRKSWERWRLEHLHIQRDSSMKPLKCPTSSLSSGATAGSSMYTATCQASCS
compound,measurement,setting,value
"C=C[C@@]1(C)CC(=O)[C@]2(O)[C@@]3(C)[C@@H](O)CCC(C)(C)[C@@H]3[C@H](O)[C@H](OC(C)=O)[C@@]2(C)O1 [forskolin, reference compound]",saturation of the cAMP sensor,"[1]; forskolin 50 μM, hGLP-1R+ HEK293T",Saturation of the cAMP sensor was not achieved
"C[C@]12CC[C@@H]3c4ccc(OCC(=O)O)cc4CC[C@H]3[C@@H]1CC[C@@H]2O [E2-3-ether, estradiol 3-carboxymethyl ether]",estrone-3-sulfate levels,[2],significantly increased estrone-3-sulfate levels
"C[C@]12CC[C@@H]3c4ccc(O)cc4CC[C@H]3[C@@H]1CC[C@@H]2O [E2, 17β-estradiol]",cAMP production via GPER1,[3],did not observe E2-or G1-driven cAMP production
same,PLA: proximal localization of ERα and SP-1,[4],significantly increase the proximal localization of ERα and the nucleus-localized transcription factor specificity protein-1 (SP-1) relative to GLP-1 (7-36)amide
CC(=O)c1ccc2c(c1)C1C=CCC1C(c1cc3c(cc1Br)OCO3)N2 (centres unmarked) [G1],cAMP production via GPER1,[3],did not observe E2-or G1-driven cAMP production
CO/C1=C\C(C)=C\[C@@H](C)[C@@H](O)[C@@H](C)C/C(C)=C/C=C/[C@H](OC)[C@@H]([C@@H](C)[C@@H](O)[C@H](C)[C@@]2(O)C[C@@H](O)[C@H](C)[C@@H](C(C)C)O2)OC1=O [bafilomycinA1],GLP-1R internalization on bafilomycinA1 pre/co-treatment,"[5]; 5 μM, with GLP-1 (7-36)amide (1 μM)",without affecting receptor internalization
same,off-target effect on stimulated ERα activation,[6],did not have off-target effects on stimulated ERα activation by E2 or E2-3-ether
same,GLP-1R retention in Rab5+ early endosomes on bafilomycinA1 pre/co-treatment,[7]; 5 μM,significantly increases GLP-1R retention in Rab5^+ early endosomes
CC[C@H](C)[C@H](NC(=O)[C@H](Cc1ccccc1)NC(=O)[C@H](CCC(=O)O)NC(=O)[C@H](CCCCN)NC(=O)[C@H](C)NC(=O)[C@H](C)NC(=O)[C@H](CCC(N)=O)NC(=O)[C@H](CCC(=O)O)NC(=O)[C@H](CCC(=O)O)NC(=O)[C@H](CC(C)C)NC(=O)[C@H](Cc1ccc(O)cc1)NC(=O)[C@H](CO)NC(=O)[C@H](CO)NC(=O)[C@@H](NC(=O)[C@H](CC(=O)O)NC(=O)[C@H](CO)NC(=O)[C@@H](NC(=O)[C@H](Cc1ccccc1)NC(=O)[C@@H](NC(=O)CNC(=O)[C@H](CCC(=O)O)NC(=O)C(C)(C)NC(=O)[C@@H](N)Cc1c[nH]cn1)[C@@H](C)O)[C@@H](C)O)C(C)C)C(=O)N[C@@H](C)C(=O)N[C@@H](Cc1c[nH]c2ccccc12)C(=O)N[C@@H](CC(C)C)C(=O)N[C@H](C(=O)N[C@@H](CCCCN)C(=O)NCC(=O)NCC(=O)N1CCC[C@H]1C(=O)N[C@@H](CO)C(=O)N[C@@H](CO)C(=O)NCC(=O)N[C@@H](C)C(=O)N1CCC[C@H]1C(=O)N1CCC[C@H]1C(=O)N1CCC[C@H]1C(=O)N[C@@H](CO)C(=O)N[C@@H](CCCCNC(=O)COc1ccc2c(c1)CC[C@@H]1[C@@H]2CC[C@]2(C)[C@@H](O)CC[C@@H]12)C(N)=O)C(C)C [GLP-1-CEX/E2],EC50,[8],44.6 nM
same,Emax,[8]; HEK-293T,94.2 ± 5.2%
same,EC50,[1],16.8 nM
same,Emax,[1]; HEK-293T,111 ± 5.3%
same,EC50,[9],47.8 nM
same,Emax,[9]; HEK-293T,94 ± 9%
same,EC50,[5],5.01 nM
same,Emax,[5]; HEK-293T,90.9 ± 1.5%
same,EC50,[10],29.5 nM
same,Emax,[10]; HEK-293T,100 ± 2.6%
same,EC50,[11],143 nM
same,Emax,[11]; MIN6,95.4 ± 7.7%
same,EC50,[12],0.963 nM
same,Emax,[12]; MIN6,99.1 ± 4%
same,EC50,[13],245 nM
same,Emax,[13]; MIN6,76.7 ± 12.2%
same,EC50,[14],158 nM
same,Emax,[14]; MIN6,98.6 ± 9.3%
same,EC50,[15],39.2 nM
same,Emax,[15]; MIN6,99 ± 4.9%
same,EC50,[16],62.2 nM
same,Emax,[16],103 ± 5.7%
same,EC50,[17],0.0316 nM
same,Emax,[17],106 ± 6.2%
same,EC50,[18],142 nM
same,Emax,[18],97.4 ± 14.8%
same,EC50,[19],162 nM
same,Emax,[19],95.9 ± 4.1%
C=CC(=O)Nc1cc(NC(=O)c2cnn(-c3ccccc3F)c2)ccc1F [EN6],off-target effect on stimulated ERα activation,[6],did not have off-target effects on stimulated ERα activation by E2 or E2-3-ether
same,endosomal trafficking dynamics on EN6 treatment,[7]; 50 μM,without altering endosomal trafficking dynamics
